Laboratory results from US5807986A, “Methods of making and screening betide libraries” (The Salk Institute For Biological Studies, priority 1995, dated 1998).
Where “and” joins values, the source holds several entries; their conditions need not be identical. Equal values may be shown once. Where a SMILES comes first, the peptide text is derived from it. [ ]: non-standard residue; d: D form. dPhe(4-NH2) = Nc1ccc(C[C@@H](N)C(=O)O)cc1; dPhe(4-Cl) = N[C@H](Cc1ccc(Cl)cc1)C(=O)O; Phe(4-NH2) = Nc1ccc(C[C@H](N)C(=O)O)cc1; d2Nal = N[C@H](Cc1ccc2ccccc2c1)C(=O)O; Lys(iPr) = CC(C)NCCCC[C@H](N)C(=O)O; d3Pal = N[C@H](Cc1cccnc1)C(=O)O

Experiments:
[1] = hydrophilicity by retention on RP-HPLC; type: physicochemical
ovulation in female rats = assay: standard in vivo rat anti-ovulation test; set-up: species or system Sprague-Dawley rats; conditions: injected at about noon on the day of proestrus
Description: (§1) The betide is assayed in vivo to determine its effectiveness to prevent ovulation in female rats. In this test, a specified number of mature female Sprague-Dawley rats, e.g. five to ten, each having a body weight from 225 to 250 grams, are injected with a specified microgram dosage of the betide in bacteriostatic water at about noon on the day of proestrus. Proestrus is the […] of ovulation. A separate female rat group is used as a control to which the peptide is not administered. Each of the control female rats ovulates on the evening of proestrus; the number of the rats treated which ovulate is recorded. […] At a dosage of 1.0 microgram for isomer (1), all ovulate while for 1 μg of isomer (2), only 6 out of 14 rats ovulate and for 0.5 μg, 3 out of 4 rats ovulate. Isomer (2) is hereinafter referred to as Betide No. 1.

[2] = examination of rats for tolerance and gelling at the point of injection; type: in vivo; conditions: rats of the anti-ovulation test, injected in bacteriostatic water
Description: as §1

mSSTR1 = molecular target: T1, mSSTR1 (Mus musculus, UniProt P30873); assay: inhibition of radioligand binding to cloned SRIF receptor mSSTR1; conditions: cloned mouse receptor expressed on COS and CHO cells
T1 construct: expressed in transfected cells; host or cells: COS and CHO cells
Description: (§2) In vitro Bioassay: The effects of the various somatostatin analogs are tested in vitro for their ability to bind to isolated cloned receptors expressed on COS and CHO cells.
(§3) Five such receptor subtypes termed SSTR1 through SSTR5, have been cloned and are reported and described in Raynor et al., Molecular Pharmacology, 43, 838-844 (1993) and in Raynor et al., Molecular Pharmacology, 44, 385-392 (1993).

mSSTR2 = molecular target: T2, mSSTR2 (Mus musculus, UniProt P30875); assay: inhibition of radioligand binding to cloned SRIF receptor mSSTR2; conditions: cloned mouse receptor expressed on COS and CHO cells
T2 construct: expressed in transfected cells; host or cells: COS and CHO cells
Description: as §2, §3

mSSTR3 = molecular target: T3, mSSTR3 (Mus musculus, UniProt P30935); assay: inhibition of radioligand binding to cloned SRIF receptor mSSTR3; conditions: cloned mouse receptor expressed on COS and CHO cells
T3 construct: expressed in transfected cells; host or cells: COS and CHO cells
Description: as §2, §3

T2 sequence (P30875 whole entry): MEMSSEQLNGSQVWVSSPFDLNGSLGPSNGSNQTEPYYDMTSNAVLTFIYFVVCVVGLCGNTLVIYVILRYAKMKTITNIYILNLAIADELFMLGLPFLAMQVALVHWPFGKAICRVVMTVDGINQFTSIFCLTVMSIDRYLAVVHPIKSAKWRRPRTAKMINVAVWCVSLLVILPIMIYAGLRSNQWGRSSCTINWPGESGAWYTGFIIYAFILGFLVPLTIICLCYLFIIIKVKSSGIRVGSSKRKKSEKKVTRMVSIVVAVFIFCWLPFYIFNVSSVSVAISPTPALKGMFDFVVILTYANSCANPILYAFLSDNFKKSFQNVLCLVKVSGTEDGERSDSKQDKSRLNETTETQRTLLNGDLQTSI
T1 sequence (P30873 whole entry): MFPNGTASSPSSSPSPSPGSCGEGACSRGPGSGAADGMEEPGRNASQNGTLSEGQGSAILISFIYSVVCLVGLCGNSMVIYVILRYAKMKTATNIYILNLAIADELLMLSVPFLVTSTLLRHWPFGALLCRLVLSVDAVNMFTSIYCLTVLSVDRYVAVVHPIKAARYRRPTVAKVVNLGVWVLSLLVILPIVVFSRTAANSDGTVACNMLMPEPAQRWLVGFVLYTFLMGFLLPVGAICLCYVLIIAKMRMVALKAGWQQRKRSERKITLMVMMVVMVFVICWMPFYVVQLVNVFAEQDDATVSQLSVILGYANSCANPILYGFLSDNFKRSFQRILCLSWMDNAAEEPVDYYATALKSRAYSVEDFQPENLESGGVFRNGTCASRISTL
T3 sequence (P30935 whole entry): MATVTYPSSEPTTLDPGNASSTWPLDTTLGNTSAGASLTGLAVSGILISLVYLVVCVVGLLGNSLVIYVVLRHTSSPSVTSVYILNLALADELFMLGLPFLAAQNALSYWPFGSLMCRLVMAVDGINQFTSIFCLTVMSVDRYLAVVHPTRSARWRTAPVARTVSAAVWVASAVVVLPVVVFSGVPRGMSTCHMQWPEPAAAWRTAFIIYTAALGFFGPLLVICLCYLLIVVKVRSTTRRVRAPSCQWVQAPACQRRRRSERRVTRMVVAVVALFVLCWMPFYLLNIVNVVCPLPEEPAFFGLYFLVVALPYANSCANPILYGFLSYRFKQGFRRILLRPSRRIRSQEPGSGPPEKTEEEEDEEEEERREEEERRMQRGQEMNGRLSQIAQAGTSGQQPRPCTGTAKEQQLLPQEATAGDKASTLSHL

IC50 (mSSTR1)	IC50 (mSSTR2) [nM]	Compound	rats ovulating out of rats treated (ovulation in female rats; dosage 5 μg)	also measured
> 1000 nM and 600 nM	> 1000	C[C@@H](O)[C@@H]1NC(=O)[C@H](CCCCN)NC(=O)C(N(C)C(=O)c2ccc3ccccc3c2)NC(=O)[C@H](Cc2ccccc2)NC(=O)[C@H](Cc2ccccc2)NC(=O)[C@@H](N)CSSC[C@@H](C(=O)O)NC(=O)[C@H](Cc2ccccc2)NC1=O (stereo partly drawn) [Betide No. 7A, (cyclo 1-8)H-Cys-Phe-Phe-(β-methyl-γ-2-naphthyl)D/L(amido)Gly-Lys-Thr- Phe-Cys-OH]	–	–
> 1000 nM	> 1000	C[C@@H](O)[C@@H]1NC(=O)C(NC(=O)CCN)NC(=O)[C@@H](Cc2c[nH]c3ccccc23)NC(=O)[C@H](Cc2ccccc2)NC(=O)[C@H](Cc2ccccc2)NC(=O)[C@@H](N)CSSC[C@@H](C(=O)O)NC(=O)[C@H](Cc2ccccc2)NC1=O (stereo partly drawn) [Betide No. 8, (cyclo 1-8)H-Cys-Phe-Phe-D-Trp-γ-(2-aminoethyl)amido-glycine-Thr-Phe-Cys-OH]	–	IC50 (mSSTR3): > 1000 nM
> 1000 nM	> 1000	C[C@@H](O)[C@@H]1NC(=O)[C@H](CCCCN)NC(=O)C(NC(=O)c2ccc3ccccc3c2)NC(=O)[C@H](Cc2ccccc2)NC(=O)[C@H](Cc2ccccc2)NC(=O)[C@@H](N)CSSC[C@@H](C(=O)O)NC(=O)[C@H](Cc2ccccc2)NC1=O (stereo partly drawn) [Betide No. 7, (cyclo 1-8)H-Cys-Phe-Phe-(2-naphthylamido)Gly-Lys-Thr-Phe-Cys-OH]	–	IC50 (mSSTR3): > 1000 nM

Second part, the compound before the results:

Compound	IC50 (mSSTR1)	IC50 (mSSTR2) [nM]	rats ovulating out of rats treated (ovulation in female rats; dosage 5 μg)	also measured
CC(=O)Nc1ccc(C[C@H](NC(=O)[C@H](CO)NC(=O)[C@@H](Cc2cccnc2)NC(=O)[C@@H](Cc2ccc(Cl)cc2)NC(=O)[C@@H](Cc2ccc3ccccc3c2)NC(C)=O)C(=O)N[C@H](Cc2ccc(NC(C)=O)cc2)C(=O)N[C@@H](CC(C)C)C(=O)N[C@@H](CCCCNC(C)C)C(=O)N2CCC[C@H]2C(=O)N[C@H](C)C(N)=O)cc1 [Acyline, Ac-β-D-2NAL-(4Cl)D-Phe-D-3PAL-Ser-Aph(Ac)D-Aph(Ac)-Leu-ILys-Pro-D-Ala-NH2, reference compound] (Ac-[d2Nal][dPhe(4-Cl)][d3Pal]S[Phe(4-NH2)](Ac)[dPhe(4-NH2)](Ac)L[Lys(iPr)]P[dA]-NH2)	–	–	–	retention using RP-HPLC (hydrophilicity) ([1]; gradient 40% to 75% Buffer B over 30 minutes, Buffer A TEAP pH 7.3, Buffer B 60% CH3CN and 40% Buffer A): 24.1 min
Ac-β-D-2NAL-(4Cl)D-Phe-D-3PAL-Ser-Aph(acetyl)-γ-(4-acetamidophenyl)D/L-amidoGly-Leu-Lys (isopropyl)-Pro-D-Ala-NH2 [Betide No. 5]	–	–	1 out of 8	rats ovulating out of rats treated (ovulation in female rats; dosage 2.5 μg): 2 out of 4
Ac-β-D-2NAL-(4Cl)D-Phe-D-3PAL-Ser-(4-Acetyl-amino-benzyl)D/L-amidoGly-D-Aph(acetyl)-Leu-Lys(isopropyl)-Pro-D-Ala-NH2 [Betide No. 4]	–	–	2 out of 8	–
Ac-β-D-2NAL-(4Cl)D-Phe-D-(3-pyridyl)Ala-Ser-Aph(acetyl)-D-Aph(acetyl)-D/L-Agl(Acetyl)-Lys(isopropyl)-Pro-D-Ala-NH2 [Betide No. 2]	–	–	5 out of 8	hydrophilicity compared to Acyline ([1]; RP-HPLC): more hydrophilic than Acyline; rats ovulating out of rats treated (ovulation in female rats; dosage 10 μg): 0 out of 8
CC(=O)Nc1ccc(C[C@H](NC(=O)[C@H](CO)NC(=O)C(NC(=O)c2cccnc2)NC(=O)[C@@H](Cc2ccc(Cl)cc2)NC(=O)[C@@H](Cc2ccc3ccccc3c2)NC(C)=O)C(=O)N[C@H](Cc2ccc(NC(C)=O)cc2)C(=O)N[C@@H](CC(C)C)C(=O)N[C@@H](CCCCNC(C)C)C(=O)N2CCC[C@H]2C(=O)N[C@H](C)C(N)=O)cc1 (single isomer, unassigned) [Betide No. 1, [Ac-β-D-2NAL^1, (4Cl)D-Phe^2, D/L Agl(nicotinoyl)^3, Aph(Ac)^5, D-Aph(Ac)^6, ILys^8, D-Ala^10]-GnRH]	–	–	–	tolerance and gelling at the point of injection [2]: very well tolerated, with no significant gelling at the point of injection being detectable
Ac-β-D-2NAL-(4Cl)D-Phe-D-3PAL-Ser-γ-(4-hydroxyphenyl)D/L-amidoGly-D-Aph(acetyl)-Leu-Lys(isopropyl)-Pro-D-Ala-NH2 [Betide No. 4A]	–	–	2 out of 16	–
[Ac-βCH3 -D-2NAL^1, 4ClD-Phe^2, D-3PAL^3, Aph(atz)^5, D-Aph(atz)^6, ILys^8, D-Ala^10 ]-GnRH [E stereoisomer]	–	–	–	rats ovulating out of rats treated (ovulation in female rats; dosage 1.0 μg): partially active; rats ovulating out of rats treated (ovulation in female rats; dosage 2.5 μg): fully active
